In patent publication US20050171084A1, “Methods of treatment with lxr modulators” (priority 2002, published 2005):

Tests used:
ABCG1 [1] = experiment: ABCG1 gene expression in the CNS after oral dosing; assay type: in vivo, C57 B1/6 mice; conditions: oral gavage, Example 1 10 mg kg twice daily, T0901317 50 mg/kg once daily
Experimental: (§1) Total RNA was isolated from tissue and cell culture samples using TRIzol reagent (GibcoBRL). Briefly, tissue samples were thawed directly in 1 ml Trizol/50 mg tissue and homogenized with a polytron. To facilitate recovery of nucleic acid, 100 μg glycogen (Ambion) was added. Cultured cells were lysed in 1 ml Trizol containing 100 μg glycogen per well. Samples were then extracted in chloroform and spun at 4° C. at 11,000×g for 15 min. The aqueous phase was collected and the RNA was precipitated with the addition of isopropanol. The samples were then spun at 11,000×g at 4° C. for 15 min, the pellet washed in 75% ethanol, dried, and dissolved in water. Samples were stored at −70° C. until use.
(§2) Total RNA samples were diluted to 100 μg/ml and treated with 40 units/ml […] DNAse-I (Ambion) for 30 min at 37° C. followed by inactivation at 75° C. for 5 min. Samples were quantitated by spectrophotometry or with the RiboGreen assay (Molecular Probes) and diluted to a concentration of 10 ng/μl. Samples were then assayed in duplicate or triplicate 25-μl reactions using 25 ng RNA per reaction with Perkin Elmer chemistry on an ABI Prism 7700 (Perkin Elmer) according to manufacturer's instructions. Gene-specific primers were used at 7.5 or 22.5 pmol per reaction, optimized for each gene examined, and the gene-specific probe was used at 5 pmol per reaction. Primers and probe were synthesized by Keystone Labs (Camarillo, Calif.). In this system, the probe is degraded by Taq polymerase during the amplification phase, releasing the fluorescent tag from its quenched state; amplification data is expressed as the number of PCR cycles required to elevate the fluorescence signal beyond a threshold intensity level. Fold induction values were calculated by subtracting the mean threshold cycle number (Ct) for each treatment group from the mean Ct for the vehicle group and raising 2 to the power of this difference.
(§3) Adult male C57 B1/6 mice (3 per group) were dosed by oral gavage with the LXR agonists Example 1, T0901317, or vehicle (0.5% methylcellulose). Example 1 was delivered at 10 mg kg twice daily, while T0901317 was administered at 50 mg/kg once daily. After 3 or 7 days' treatment, animals were killed and their brains removed. The cerebellum and both hippocampi were dissected and snap frozen in liquid nitrogen for RNA isolation. Total RNA was prepared from the hippocampus and cerebellum (black bars) and analyzed for gene expression patterns using QRT-PCR (as described above). Expression levels for each gene in each tissue were normalized to the average expression level in the vehicle group. Both LXR agonists enhanced ABCA1 expression relative to the vehicle-treated group, with the effect most pronounced in the cerebellum after 3 days' treatment.

ABCA1 [2] = experiment: ABCA1 gene expression in the CNS after oral dosing; assay type: in vivo, C57 B1/6 mice; conditions: oral gavage, Example 1 10 mg kg twice daily, T0901317 50 mg/kg once daily
Experimental: as §1, §2, §3

ABCG1 [3] = experiment: ABCG1 gene expression in primary neuron cultures (QRT-PCR); assay type: cell-based, mouse; conditions: Neurons
Experimental: as §1
(§4) Total RNA samples were diluted to 100 μg/ml and treated with 40 units/ml […] DNAse-I (Ambion) for 30 min at 37° C. followed by inactivation at 75° C. for 5 min. Samples were quantitated by spectrophotometry or with the RiboGreen assay (Molecular Probes) and diluted to a concentration of 10 ng/μl. […] In this system, the probe is degraded by Taq polymerase during the amplification phase, releasing the fluorescent tag from its quenched state; amplification data is expressed as the number of PCR cycles required to elevate the fluorescence signal beyond a threshold intensity level. […]

ABCA1 [4] = experiment: ABCA1 gene expression in primary astrocyte cultures (QRT-PCR); assay type: cell-based, mouse; conditions: Astrocytes
Experimental: as §1, §4

ABCG1 [5] = experiment: ABCG1 gene expression in primary astrocyte cultures (QRT-PCR); assay type: cell-based, mouse; conditions: Astrocytes
Experimental: as §1, §4

Murine astroglia = experiment: Cholesterol efflux from astrocytes; assay type: cell-based, mouse; conditions: basal efflux, standard deviation in parentheses, * p<0.05
Experimental: Murine astroglia were obtained from postnatal day 1 pups. Briefly, pups were decapitated, their brains removed, and the cerebral cortices prepared as described previously (45), except that astrocyte plating media was used (Dulbecco's modified eagle media [DMEM] containing 4 mg/ml glucose, 5% FBS and 5% HS [GibcoBRL or Irvine Scientific], 100 U/ml penecillin/100 μg/ml streptomycin, 25 mM HEPES, and 2-4 mM glutamine). Glia were grown in T75 flasks at a density of approximately 2 brains per flask. Cells were fed once weekly by complete media exchange in maintenance media (DMEM containing 4.5 mg/ml glucose, 10% FBS, 100 U/ml penecillin/100 μg/ml streptomycin, 25 mM HEPES, and 6 mM glutamine). By visual inspection, these cultures were nearly entirely astroglial with <1% contamination with microglia. After 7-14 days in vitro, cells were collected by trypsinization, counted in a hemacytometer, and plated into 6-well plates at 50-100,000 cells per well in maintenance media. […]
Cholesterol efflux assays were performed as described elsewhere (24) with some modifications. […] Two hundred microliters of the culture media supernatant and 200 μl of the cell extract were counted for tritium in 2 ml Packard Ultima Gold Scint. […] Efflux is expressed as percent of the total radiolabeled cholesterol pool present in the cultures.

SREBP-1c = SREBP-1c gene expression in primary neuron cultures (QRT-PCR); assay type: cell-based, mouse; conditions: Neurons
Experimental: as §1, §4

Row | ABCG1 expression normalized to vehicle-treated group (fold induction) (ABCG1 [3]) | ABCA1 expression normalized to vehicle-treated group (fold induction) (ABCA1 [4]) | ABCG1 expression normalized to vehicle-treated group (fold induction) (ABCG1 [5]) | SREBP-1c expression normalized to vehicle-treated group (fold induction) (SREBP-1c) | SMILES | ABCG1 expression normalized to vehicle group (ABCG1 [1]; CB (cerebellum), first table) | ABCG1 expression normalized to vehicle group (ABCG1 [1]; CB (cerebellum), second table) | ABCG1 expression normalized to vehicle group (ABCG1 [1]; HC (hippocampus), first table) | ABCG1 expression normalized to vehicle group (ABCG1 [1]; HC (hippocampus), second table) | ABCA1 expression normalized to vehicle group (ABCA1 [2]; CB (cerebellum), first table) | ABCA1 expression normalized to vehicle group (ABCA1 [2]; CB (cerebellum), second table) | ABCA1 expression normalized to vehicle group (ABCA1 [2]; HC (hippocampus), first table) | ABCA1 expression normalized to vehicle group (ABCA1 [2]; HC (hippocampus), second table) | Cholesterol efflux as a percentage of total [3H] cholesterol (Murine astroglia)
1 | 2.8 | 11.8 | 14.9 | 3.1 | O=C(O)Cc1cccc(OCCCN(Cc2cccc(C(F)(F)F)c2Cl)CC(c2ccccc2)c2ccccc2)c1 [Example 1, 2-(3-{3-[[2-Chloro-3-(trifluoromethyl)benzyl](2,2-diphenylethyl)amino]propoxy}-phenyl)acetic Acid] | 1.52 (0.073) | 1.17 (0.142) | 1.14 (0.212) | 0.89 (0.045) | 2.13 (0.354) | 1.43 (0.302) | 1.57 (0.348) | 1.26 (0.162) | 4.722 (0.783)* %
2 | 3.1 | 18.4 | 12.5 | 3.1 | O=S(=O)(c1ccccc1)N(CC(F)(F)F)c1ccc(C(O)(C(F)(F)F)C(F)(F)F)cc1 [Example T0901317, N-(2,2,2-trifluoroethyl)-N-[4-(2,2,2-trifluoro-1-hydroxy-1-trifluoromethyl-ethyl)-phenyl]-benzenesulfonamide] | 2.31 (0.081) | 1.80 (0.116) | 1.22 (0.098) | 1.37 (0.092) | 3.66 (0.389) | 2.94 (0.084) | 2.70 (0.304) | 2.69 (0.175) | 4.370 (0.561)* %
